Two compounds from the NIST ThermoML archive (doi:10.1016/j.jct.2016.06.023) can be followed below.

± gives the expanded uncertainty stated by the source.

Usually mass density stands for mass per unit of volume.

The nature of data set [1]: mn = molality of the nth substance listed, in mol/kg. The note with it: 101.3 kPa, Liquid, Vibrating tube method, m2 = 0.
For data set [2] the following is noted: 101.3 kPa, Liquid, Vibrating tube method.

On to `O` [water] + O=C(O)CC(=O)O, for which the mass density in data set [1] (278.15 K) is listed as 999.99 ± 0.4 kg/m3; in data set [1] (283.15 K), 999.73 ± 0.41 kg/m3; in data set [1] (308.15 K), 994.06 ± 0.41 kg/m3; in data set [1] (328.15 K), 985.73 ± 0.4 kg/m3; in data set [1] (333.15 K), 983.24 ± 0.4 kg/m3; in data set [1] (338.15 K) it was 980.59 ± 0.4 kg/m3. The mass density in data set [1] (343.15 K) is 977.81 ± 0.4 kg/m3.
On to `O` [water], for which the mass density in data set [2] (278.15 K) was found to be 999.99 ± 0.4 kg/m3; in data set [2] (283.15 K), 999.73 ± 0.41 kg/m3; in data set [2] (308.15 K), 994.06 ± 0.41 kg/m3; in data set [2] (328.15 K), 985.73 ± 0.4 kg/m3; in data set [2] (333.15 K) it was 983.24 ± 0.4 kg/m3; in data set [2] (338.15 K), 980.59 ± 0.4 kg/m3. Further, the mass density in data set [2] (343.15 K) was 977.81 ± 0.4 kg/m3.
